Test results from patent publication US20230339981A1, “KRAS G12D MODULATING COMPOUNDS” (priority 2022, published 2023).

What was measured:
GDP-loaded KRAS G12D = GDP-loaded KRAS G12D (Homo sapiens (Human), UniProt P01116, G12D); assay: KRAS G12D (GDP) biochemical assay (TR-FRET probe displacement); format: binding; settings: 2 hours
How it was run: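 Compound pre-incubated 30 min with GDP-loaded KRAS G12D in 50 mM Hepes pH 7.4, 150 mM NaCl, 5 mM MgCl2, 0.005% Tween-20, then Eu-streptavidin and TR-FRET probe added. After 2 h at room temperature, TR-FRET ratio read; IC50 is 50% ratio decrease, sigmoidal fit.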

GP2D (KRAS G12D) cells = assay: 2D cell viability assay (CellTiter-Glo); format: cell-based; settings: 4 days
How it was run: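 GP2D (KRAS G12D) cells, 1000/well in RPMI + 10% FBS, were plated onto compound (1:3 DMSO series) and grown 4 days at 37 °C, 5% CO2 in 2D. CellTiter-Glo luminescence was read; EC50 is the concentration giving 50% signal decrease, from sigmoidal fit.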

AsPC-1 (KRAS G12D) cells = assay: 3D cell viability assay (spheroids, CellTiter-Glo 3D); format: cell-based; settings: AsPC-1 cells, 3D spheroids, 4 days
How it was run: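 AsPC-1 cells (1000/well) in DMEM with 10% FBS formed spheroids over 3 days at 37 °C in ultra-low attachment plates, then were treated with 1:3 serial dilutions for 4 days. Viability read by CellTiter-Glo 3D luminescence; EC50 as concentration giving 50% signal decrease, sigmoidal fit.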

GDP-loaded KRAS G12D, sequence (P01116-2 other isoform, or with tags, fused parts or gaps G12D): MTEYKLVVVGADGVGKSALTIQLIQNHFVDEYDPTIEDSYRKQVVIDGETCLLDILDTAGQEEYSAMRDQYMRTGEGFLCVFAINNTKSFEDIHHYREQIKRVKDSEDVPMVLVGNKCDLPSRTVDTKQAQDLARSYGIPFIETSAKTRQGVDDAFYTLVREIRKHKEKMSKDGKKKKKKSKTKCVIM

C#Cc1c(F)ccc2cccc(-c3nc4c5c(nc(OC[C@@]67CCCN6C[C@H](F)C7)nc5c3F)N3C[C@H]5CC[C@H](N5)[C@H]3CCC4)c12 [Example 76, (6aR,7S,10R)-2-(8-ethynyl-7-fluoronaphthalen-1-yl)-1-fluoro-13-(((2R,7aS)-2-fluorotetrahydro-1H-pyrrolizin-7a(5H)-yl)methoxy)-5,6,6a,7,8,9,10,11-octahydro-4H-3,11a,12,14,15-pentaaza-7,10-methanocyclohepta[4,5]cycloocta[1,2,3-de]naphthalene]
IC50 (GDP-loaded KRAS G12D): 0.1 nM | EC50 (GP2D (KRAS G12D) cells; GP2d, 96 h): 4 nM | EC50 (AsPC-1 (KRAS G12D) cells; Homo sapiens, ASPC1, 96 h): 27 nM

C#Cc1c(F)ccc2cc(O)cc(-c3nc4c5c(nc(OC[C@@]67CCCN6[C@H](COC(C6CC6)C(F)(F)F)CC7)nc5c3F)N3C[C@H]5CC[C@H](N5)[C@H]3CC4)c12 (stereo partly drawn) [Example 110, 4-((5aR,6S,9R)-12-(((3S,7aS)-3-((1-cyclopropyl-2,2,2-trifluoroethoxy)methyl)tetrahydro-1H-pyrrolizin-7a(5H)-yl)methoxy)-1-fluoro-4,5,5a,6,7,8,9,10-octahydro-3,10a,11,13,14-pentaaza-6,9-methanonaphtho[1,8-ab]heptalen-2-yl)-5-ethynyl-6-fluoronaphthalen-2-ol]
IC50 (GDP-loaded KRAS G12D): 0.3 nM | EC50 (GP2D (KRAS G12D) cells): 36.1 nM | EC50 (AsPC-1 (KRAS G12D) cells): 51 nM

C#Cc1c(F)ccc2cccc(-c3nc4c5c(nc(OC[C@@]67CCCN6C[C@H](F)C7)nc5c3F)N3C[C@H]5CC[C@H](N5)[C@H]3C[C@@H]4CC)c12 [Example 175, (4S,5aR,6S,9R)-4-ethyl-2-(8-ethynyl-7-fluoronaphthalen-1-yl)-1-fluoro-12-(((2R,7aS)-2-fluorotetrahydro-1H-pyrrolizin-7a(5H)-yl)methoxy)-4,5,5a,6,7,8,9,10-octahydro-3,10a,11,13,14-pentaaza-6,9-methanonaphtho[1,8-ab]heptalene]
IC50 (GDP-loaded KRAS G12D): 0.5 nM | EC50 (GP2D (KRAS G12D) cells; GP2d, 96 h): 11.9 nM | EC50 (AsPC-1 (KRAS G12D) cells; Homo sapiens, ASPC1, 96 h): 150 nM

C#Cc1c(F)ccc2cccc(-c3nc4c5c(nc(OC[C@@]67CCCN6C[C@H](F)C7)nc5c3F)N3C[C@H]5CC[C@H](N5)[C@H]3[C@@H](C)C4)c12 [Example 183, (5S,5aR,6S,9R)-2-(8-ethynyl-7-fluoronaphthalen-1-yl)-1-fluoro-12-(((2R,7aS)-2-fluorotetrahydro-1H-pyrrolizin-7a(5H)-yl)methoxy)-5-methyl-4,5,5a,6,7,8,9,10-octahydro-3,10a,11,13,14-pentaaza-6,9-methanonaphtho[1,8-ab]heptalene]
IC50 (GDP-loaded KRAS G12D): 1.9 nM | EC50 (GP2D (KRAS G12D) cells; GP2d, 96 h): 63 nM | EC50 (AsPC-1 (KRAS G12D) cells; Homo sapiens, ASPC1, 96 h): 270 nM

C#Cc1c(F)ccc2cc(O)cc(-c3nc4c5c(nc(OC[C@@]67CCCN6C[C@@]6(CC6(F)F)C7)nc5c3F)N3C[C@H]5CC[C@H](N5)[C@H]3CC4)c12 [Example 122, 4-((5aR,6S,9R)-12-(((1S,7a'S)-2,2-difluorodihydro-1′H,3′H-spiro[cyclopropane-1,2′-pyrrolizin]-7a′(5′H)-yl)methoxy)-1-fluoro-4,5,5a,6,7,8,9,10-octahydro-3,10a,11,13,14-pentaaza[6,9]methanonaphtho[1,8-ab]heptalen-2-yl)-5-ethynyl-6-fluoronaphthalen-2-ol]
IC50 (GDP-loaded KRAS G12D): < 0.1 nM | EC50 (GP2D (KRAS G12D) cells; GP2d, 96 h): 0.1 nM | EC50 (AsPC-1 (KRAS G12D) cells; Homo sapiens, ASPC1, 96 h): 2.9 nM

Oc1cc(-c2nc3c4c(nc(OC[C@@]56CCCN5C[C@H](F)C6)nc4c2F)N2C[C@H]4CC[C@H](N4)[C@H]2CO3)c2c(OC3CC3)c(F)ccc2c1 [Example 42, 5-cyclopropoxy-6-fluoro-4-((5aS,6S,9R)-1-fluoro-12-(((2R,7aS)-2-fluorotetrahydro-1H-pyrrolizin-7a(5H)-yl)methoxy)-5a,6,7,8,9,10-hexahydro-5H-4-oxa-3,10a,11,13,14-pentaaza-6,9-methanonaphtho[1,8-ab]heptalen-2-yl)naphthalen-2-ol]
IC50 (GDP-loaded KRAS G12D): 2 nM | EC50 (GP2D (KRAS G12D) cells; GP2d, 96 h): 28 nM | EC50 (AsPC-1 (KRAS G12D) cells; Homo sapiens, ASPC1, 96 h): 95 nM
